Reference: patent US20080306037A1, “Product for Use in the Prevention and Treatment of Cardiovascular Diseases, Cancer and Chronic Inflammatory Diseases” (priority 2005, published 2008)

Tested on: NF-kB transcription factor
Assay: Luciferase trial: inhibition of NF-kB activation by TNFα in 5.1 linfoid cells (Jurkat clone, HIV-LTR luciferase)
Assay type: cell-based
Conditions: concentration 125 μg/ml, 30 min pre-incubation, TNFα 2 ng/ml 6 hours
Experimental: Cells. A cellular line 5.1, that is a clone derived from Jurkat stably transfected with a plasmid that contains the gene of the luciferase channelled by the HIV-LTR promoter, an exponential growth is maintained in a RPMI 1640 medium supplemented with a 10% of an foetal bovine serum deactivated by heat, 2 mM of L-glutamine, 1 mM HEPES, antibiotics and 200 μg/ml of G418. Luciferase Trial. […] Next, the cells were damaged in 25 mM tris-phosphate pH 7,8, 8 mM MgCl2 1 mM DTT, 1% Triton X-100, y 7% glycerol. The luciferase activity was measured using Autolumat LB 9501 following the instructions of the luciferase trial kit and the protein concentration was measured by the Bradford method. In order eliminate the background noise caused by the lysis solution, this value was deducted in each value of the experiment and the activation was expressed as proportional induction compared to the untreated cells. Cells. The 5.1 cellular line was used, as and how described in example 1. Luciferase Trial. The 5.1 cellular line was pre-incubated for 30 minutes with oleic acid in the concentrations as stated, followed by stimulation with TNFα (2 ng/ml) for 6 hours. The NF-kB transcriptional activity was measured in the same way as in example 1. Cells. The 5.1 cellular line was used, as and how described in example 1. Luciferase Trial. […] The NF-kB transcriptional activity was measured in the same way as in example 1.

## CCCCCCCC/C=C\CCCCCCCC(=O)O [oleic acid]
  activation index (NF-kB transcription factor activation, luciferase, proportional induction compared to untreated cells): 7-8
